The NIST ThermoML archive (doi:10.1021/je900545v)

Assay: xn = mol fraction of the nth substance listed
Conditions: 298.15 K, 101 kPa, Liquid; for electrical conductivity: DDSJ-308A Conductometer

C=CCn1cc[n+](C)c1.[Cl-] [1-allyl-3-methylimidazolium chloride] + O
Conditions	electrical conductivity [S/m]	mass density [kg/m3]	viscosity [mPa·s]
x1 = 0.000171	0.0795	1005	0.8974
x1 = 0.000362	0.169	1007.5	0.8946
x1 = 0.000553	0.258	1001	0.8979
x1 = 0.000754	0.345	1004.5	0.8954
x1 = 0.001151	0.503	1004	0.9008
x1 = 0.001575	0.665	1004.7	0.9038
x1 = 0.002478	0.969	1003	0.9234
x1 = 0.003359	1.24	1004.2	0.9356
x1 = 0.004859	1.65	1005	0.9802
x1 = 0.006386	2.66	1006	0.9919
x1 = 0.008102	3.02	1007.6	1.043
x1 = 0.009949	3.29	1008.5	1.061
x1 = 0.01179	3.69	1011.6	1.093
x1 = 0.01373	3.94	1016.5	1.129
x1 = 0.01765	4.65	1017.2	1.193
x1 = 0.02156	5.33	1021.8	–
x1 = 0.02565	5.97	–	–
x1 = 0.02973	6.23	–	–
x1 = 0.03394	7.15	–	–
x1 = 0.04442	6.83	–	–
x1 = 0.05536	7.66	–	–
x1 = 0.06646	7.92	–	–
x1 = 0.07857	7.47	–	–
x1 = 0.09138	7.2	–	–
x1 = 0.1143	6.48	–	–
x1 = 0.1369	5.67	–	–
x1 = 0.1616	4.92	–	–
x1 = 0.1867	4.13	–	–
x1 = 0.211	3.91	–	–
x1 = 0.2245	3.82	–	–
x1 = 0.3233	2.63	–	–
x1 = 0.5083	0.00974	–	–
x1 = 1	0.00695	–	–
